Measurements: patent US20210393932A1, “DERMAL PATCHES AND GLASS SWABS FOR APPLICATION OF TOPICAL IMMUNOSENSITIZERS” (Squarex, LLC, priority 2020, published 2021)
Several values for one entry are separate records, joined by “and”; a condition that tells them apart may be missing. Equal values may be shown once.

Columns and labels:
[1] = Drug elution from SADBE dermal patches into pig skin (residual SADBE by HPLC); assay type: in vivo; conditions: for Percent of SADBE presumed in skin / SADBE area in kimwipe swab / SADBE area, 255 nm, 24 min. (extracted from patch) / net HPLC area of SADBE lost and presumed in skin: 2% SADBE in DMSO
Experimental: Squaric acid dibutyl ester (SADBE) at 2% (w/v) concentration in dimethylsulfoxide (DMSO) was added to a skin patch for dermal dosing of SADBE to test for a delayed-type hypersensitivity response or other skin irritation and to test how much SADBE disappears from the patch with different volumes and time of exposure, and is therefore presumed to enter the skin.
One purpose of this study was to determine the time course of drug elution from the dermal patches into the skin. For that purpose, patches were applied to the skin of pigs and removed 1, 3, 6, or 24 hours later, and then extracted to determine the amount of residual SADBE drug remaining in the patch. The missing SADBE from the amount originally loaded onto the patch is presumed to have transferred into the pig skin.
The skin patches consisted of a polymer backing layer similar to 3M 9916 polyester nonwoven backing layer with adhesive, 3M 9733 polyester film laminate barrier layer, and Precision Fabrics Group 0700-00010 polyester gauze layer. The gauze was heat sealed to the barrier layer. The gauze patch area was about 3 cm^2.
Patches were removed from the pigs at the indicated times and immediately the reservoir portion of the patch was cut out and placed in a 50 ml tube with 10 ml of DMSO.
Immediately after removing the patch, a kimwipe was used to swab the spot on the pig where the patch had been in order to attempt to recover any SADBE that was on the surface of the skin and had not absorbed into the skin. After wiping with the kimwipe, the kimwipe was placed in a separate 50 ml tube containing 10 ml of DMSO.
The tubes of DMSO with patches or kimwipe were transported to our laboratory, shaken at 200 rpm for 10 minutes, and then the DMSO from each tube was placed in an injection vial and analyzed for SADBE content by HPLC on a C18 column with the program SADBE3-50 ul. SADBE elutes in this program at about 24.0 minutes and absorbs at 255 nm, so the area of the 24.0 min peak at 255 nm was used to quantify SADBE.
This program is called SADBE3-50 ul on the HPLC, with 50 ul injection. Column: USP L1 (ODS), 250 mm×4.6 mm, 5 um (C18) • Agilent part number 880995-902 Mobile phase: A: 25 mM KH2PO4 (pH5) (not pH adjusted) • B: Methanol Flow rate: 1.0 mL/min
On Aug. 6, 2018, the first set of patches was placed on 3 pigs. The patches were all held in place on the pigs by an elastic bandage wrapped around the torso of each of the pigs over the patches. The net HPLC area of SADBE lost and presumed in skin is calculated as the area predicted from the 20 ul and 50 ul controls minus the observed HPLC area of SADBE extracted from the test patch that was applied to skin.
SADBE patch testing on pigs 4 and 5 was done on Aug. 13, 2018. In this case, patches on both pigs were covered with TEGADERM™, and on one pig the TEGADERM™ was further covered by an elastic bandage as on August 6.
Summary and Conclusions of Drug Elution from Patches: The percentage of SADBE lost from the patch, and therefore presumed to be transferred into the skin, was calculated for each patch and the results for a given volume (volume of 2% SADBE solution loaded onto the patch) and time point (time patch was on the pig) were averaged, broken down by whether an elastic bandage held the patch in place on the pig or not, was averaged.

[2] = tested on: common warts and alopecia areata; conditions: solutions of 0.05% to 2.0% weight/volume, vehicle almost always acetone, applied repeatedly (Buckley et al., Lee et al.); cited from earlier work
[3] = 20 ul on patch, removed at 1 h, elastic bandage (Aug. 6)
[4] = 20 ul on patch, removed at 3 h, elastic bandage (Aug. 6)
[5] = 20 ul on patch, removed at 6 h, elastic bandage (Aug. 6)
[6] = 20 ul on patch, removed at 24 h, elastic bandage (Aug. 6)
[7] = 20 ul, removed at 3 h, TEGADERM, Ace bandage no (Aug. 13)
[8] = 20 ul, removed at 3 h, TEGADERM, Ace bandage yes (Aug. 13)
[9] = 20 ul, removed at 6 h, TEGADERM, Ace bandage no (Aug. 13)
[10] = 20 ul, removed at 6 h, TEGADERM, Ace bandage yes (Aug. 13)
[11] = 50 ul on patch, removed at 1 h, elastic bandage (Aug. 6)
[12] = 50 ul on patch, removed at 3 h, elastic bandage (Aug. 6)
[13] = 50 ul on patch, removed at 6 h, elastic bandage (Aug. 6)
[14] = 50 ul on patch, removed at 24 h, elastic bandage (Aug. 6)
[15] = 50 ul, removed at 3 h, TEGADERM, Ace bandage no (Aug. 13)
[16] = 50 ul, removed at 3 h, TEGADERM, Ace bandage yes (Aug. 13)
[17] = 50 ul, removed at 6 h, TEGADERM, Ace bandage no (Aug. 13)
[18] = 50 ul, removed at 6 h, TEGADERM, Ace bandage yes (Aug. 13)
[19] = 80 ul on patch, removed at 1 h, elastic bandage (Aug. 6)
[20] = 80 ul on patch, removed at 3 h, elastic bandage (Aug. 6)
[21] = 80 ul on patch, removed at 6 h, elastic bandage (Aug. 6)
[22] = 80 ul on patch, removed at 24 h, elastic bandage (Aug. 6)

## CCCCOc1c(OCCCC)c(=O)c1=O [SADBE, squaric acid dibutyl ester]
[1]; [3]
  Percent of SADBE presumed in skin: 42.8% and 45.8%
  SADBE area in kimwipe swab: 35 and 39
  SADBE area, 255 nm, 24 min. (extracted from patch): 1941 and 1838
  net HPLC area of SADBE lost and presumed in skin: 1452 and 1555
[1]; [4]
  Percent of SADBE presumed in skin: 78.3% and 71.9%
  SADBE area in kimwipe swab: 38 and 44
  SADBE area, 255 nm, 24 min. (extracted from patch): 735 and 954
  net HPLC area of SADBE lost and presumed in skin: 2658 and 2439
[1]; [5]
  Percent of SADBE presumed in skin: 92.2% and 92.8%
  SADBE area in kimwipe swab: 40 and 50
  SADBE area, 255 nm, 24 min. (extracted from patch): 265 and 244
  net HPLC area of SADBE lost and presumed in skin: 3128 and 3149
[1]; [6]
  Percent of SADBE presumed in skin: 94.6% and 95.5%
  SADBE area in kimwipe swab: 19 and 21
  SADBE area, 255 nm, 24 min. (extracted from patch): 182 and 151
  net HPLC area of SADBE lost and presumed in skin: 3211 and 3242
[1]; [7]
  Percent of SADBE presumed in skin: 60.4% and 38.0%
  SADBE area, 255 nm, 24 min. (extracted from patch): 1327 and 2076
  net HPLC area of SADBE lost and presumed in skin: 2021 and 1272
[1]; [8]
  Percent of SADBE presumed in skin: 77.5% and 74.9%
  SADBE area, 255 nm, 24 min. (extracted from patch): 753 and 842
  net HPLC area of SADBE lost and presumed in skin: 2595 and 2506
[1]; [9]
  Percent of SADBE presumed in skin: 88.4% and 70.5%
  net HPLC area of SADBE lost and presumed in skin: 2960 and 2362
[1]; [10]
  Percent of SADBE presumed in skin: 90.2% and 88.4%
  SADBE area, 255 nm, 24 min. (extracted from patch): 328 and 390
  net HPLC area of SADBE lost and presumed in skin: 3020 and 2958
[1]; [11]
  Percent of SADBE presumed in skin: 38.1% and 43.0%
  SADBE area in kimwipe swab: 78 and 75
  SADBE area, 255 nm, 24 min. (extracted from patch): 5108 and 4698
  net HPLC area of SADBE lost and presumed in skin: 3141 and 3551
[1]; [12]
  Percent of SADBE presumed in skin: 67.2% and 78.9%
  SADBE area in kimwipe swab: 52 and 78
  SADBE area, 255 nm, 24 min. (extracted from patch): 2707 and 1741
  net HPLC area of SADBE lost and presumed in skin: 5542 and 6508
[1]; [13]
  Percent of SADBE presumed in skin: 84.9% and 91.9%
  SADBE area in kimwipe swab: 50 and 45
  SADBE area, 255 nm, 24 min. (extracted from patch): 1243 and 666
  net HPLC area of SADBE lost and presumed in skin: 7006 and 7583
[1]; [14]
  Percent of SADBE presumed in skin: 97.3% and 98.4%
  SADBE area in kimwipe swab: 20 and 22
  SADBE area, 255 nm, 24 min. (extracted from patch): 224 and 128
  net HPLC area of SADBE lost and presumed in skin: 8025 and 8121
[1]; [15]
  Percent of SADBE presumed in skin: 50.8% and 56.9%
  SADBE area, 255 nm, 24 min. (extracted from patch): 4058 and 3549
  net HPLC area of SADBE lost and presumed in skin: 4184 and 4693
[1]; [16]
  Percent of SADBE presumed in skin: 57.7% and 32.1%
  SADBE area, 255 nm, 24 min. (extracted from patch): 3484 and 5599
  net HPLC area of SADBE lost and presumed in skin: 4758 and 2643
[1]; [17]
  Percent of SADBE presumed in skin: 70.2% and 54.9%
  SADBE area, 255 nm, 24 min. (extracted from patch): 2454 and 3717
  net HPLC area of SADBE lost and presumed in skin: 5788 and 4525
[1]; [18]
  Percent of SADBE presumed in skin: 76.4% and 83.3%
  SADBE area, 255 nm, 24 min. (extracted from patch): 1949 and 1376
  net HPLC area of SADBE lost and presumed in skin: 6293 and 6866
[1]; [19]
  Percent of SADBE presumed in skin: 24.6% and 30.2%
  SADBE area in kimwipe swab: 105 and 98
  SADBE area, 255 nm, 24 min. (extracted from patch): 9952 and 9208
  net HPLC area of SADBE lost and presumed in skin: 3246 and 3990
[1]; [20]
  Percent of SADBE presumed in skin: 27.9% and 49.0%
  SADBE area, 255 nm, 24 min. (extracted from patch): 9517 and 6734
  net HPLC area of SADBE lost and presumed in skin: 3681 and 6464
[1]; [21]
  Percent of SADBE presumed in skin: 83.4% and 81.3%
  SADBE area, 255 nm, 24 min. (extracted from patch): 2192 and 2471
  net HPLC area of SADBE lost and presumed in skin: 11006 and 10727
[1]; [22]
  Percent of SADBE presumed in skin: 96.1% and 97.9%
  SADBE area in kimwipe swab: 24 and 20
  SADBE area, 255 nm, 24 min. (extracted from patch): 509 and 273
  net HPLC area of SADBE lost and presumed in skin: 12689 and 12925
[1]; by 6 hours, all loading volumes tested, with the elastic bandage
  loaded drug transferred into the skin: over 80%
[1]; by 24 hours
  loaded drug transferred into the skin: over 95%
[1]; with elastic bandage, 20 ul of 2% SADBE, patch worn 1 hour
  Average transfer of SADBE into skin: 44.3% (n = 2)
[1]; with elastic bandage, 20 ul of 2% SADBE, patch worn 3 hours
  Average transfer of SADBE into skin: 75.6% (n = 4)
[1]; with elastic bandage, 20 ul of 2% SADBE, patch worn 6 hours
  Average transfer of SADBE into skin: 90.9% (n = 4)
[1]; with elastic bandage, 20 ul of 2% SADBE, patch worn 24 hours
  Average transfer of SADBE into skin: 95.1% (n = 2)
[1]; with elastic bandage, 50 ul of 2% SADBE, patch worn 1 hour
  Average transfer of SADBE into skin: 40.6% (n = 2)
[1]; with elastic bandage, 50 ul of 2% SADBE, patch worn 3 hours
  Average transfer of SADBE into skin: 59.0% (n = 4)
[1]; with elastic bandage, 50 ul of 2% SADBE, patch worn 6 hours
  Average transfer of SADBE into skin: 84.1% (n = 4)
[1]; with elastic bandage, 50 ul of 2% SADBE, patch worn 24 hours
  Average transfer of SADBE into skin: 97.9% (n = 2)
[1]; with elastic bandage, 80 ul of 2% SADBE, patch worn 1 hour
  Average transfer of SADBE into skin: 27.4% (n = 2)
[1]; with elastic bandage, 80 ul of 2% SADBE, patch worn 3 hours
  Average transfer of SADBE into skin: 38.4% (n = 2)
[1]; with elastic bandage, 80 ul of 2% SADBE, patch worn 6 hours
  Average transfer of SADBE into skin: 82.3% (n = 2)
[1]; with elastic bandage, 80 ul of 2% SADBE, patch worn 24 hours
  Average transfer of SADBE into skin: 97.0% (n = 2)
[1]; without elastic bandage, 20 ul of 2% SADBE, patch worn 3 hours
  Average transfer of SADBE into skin: 49.2% (n = 2)
[1]; without elastic bandage, 20 ul of 2% SADBE, patch worn 6 hours
  Average transfer of SADBE into skin: 79.5% (n = 2)
[1]; without elastic bandage, 50 ul of 2% SADBE, patch worn 3 hours
  Average transfer of SADBE into skin: 53.9% (n = 2)
[1]; without elastic bandage, 50 ul of 2% SADBE, patch worn 6 hours
  Average transfer of SADBE into skin: 62.6% (n = 2)
[2]
  treatment of common warts and alopecia areata: used successfully
